Patent publication US8623845B1, “Pharmaceutical composition for preventing or treating Diabetes mellitus comprising bisphophonates” (Metacine, Inc., priority 2012, dated 2014)

Legend:
PTP-1B = target: T1, PTP-1B (Homo sapiens, UniProt P18031); assay: Inhibition of binding PTP-1B with IR (protein chip, anti-IR phosphorylation antibody); assay type: biochemical; conditions: mean±SD, n=6
T1 sequence (P18031 1-435): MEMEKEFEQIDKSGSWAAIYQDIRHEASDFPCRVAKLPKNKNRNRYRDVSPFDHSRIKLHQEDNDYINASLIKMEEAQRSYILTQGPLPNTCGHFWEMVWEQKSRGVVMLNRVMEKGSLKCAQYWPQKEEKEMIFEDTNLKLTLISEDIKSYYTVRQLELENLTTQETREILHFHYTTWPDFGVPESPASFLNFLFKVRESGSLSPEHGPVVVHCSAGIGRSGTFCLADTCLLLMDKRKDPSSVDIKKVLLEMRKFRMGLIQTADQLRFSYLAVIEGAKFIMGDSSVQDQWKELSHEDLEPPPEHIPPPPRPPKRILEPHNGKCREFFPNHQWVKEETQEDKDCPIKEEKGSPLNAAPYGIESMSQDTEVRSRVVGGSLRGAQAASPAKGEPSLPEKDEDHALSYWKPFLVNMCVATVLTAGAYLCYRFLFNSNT
Procedure: IR molecules stood for 1 hour at 30° C. to induce phosphorylation, and each 1 μl of IR molecules were fixed with protein chips(PeproTech) at 4° C. The protein chips were washed with washing buffer for 10 minutes, and blocked with blocking buffer(3% BSA in PBS, pH 7.4) at room temperature for 1 hour followed by washing with washing buffer. Each sample was as follow:
0. Blank control(C), 0.5 μl PEG (10%, polyethylene glycol)+0.5 μl PTP-1B buffer;
1. Negative control(N), 0.5 μl PEG (10%)+0.5 μl PTP-1B;
2. Positive control(P), 0.5 μl Na3VO4(sodium orthovanadate; 1 mM, pH 10)+0.5 μl PTP-1B;
3. Experimental group(ZA), 0.5 μl ZA (5 μM)+0.5 μl PTP-1B
The protein chips were washed for 10 minutes, and each was treated with 1 μl of anti-IR phosphorylation antibodies diluted by dilution buffer in 1/100 followed by incubating for 1 hour at 30° C. And then, it was washed with washing buffer for 10 minutes, and each was treated with […] of Cy5-fluorescent coupled rabbit anti-IgG antibodies diluted by dilution buffer in 1/100 followed by incubating for 1 hour at 30° C. They were washed for 10 minutes, scanned by microarray scanner system to analyze to GraphPad Prism 4 software.
The results are presented as the mean±SD(%). Statistical analysis was performed using Student's t-test, and P<0.05 was considered as a significance (n=6).

Rat pancreatic islets = assay: Insulin secretion level by hyperglycemia stimulation in primary pancreatic islets; assay type: cell-based, Sprague Dawley rats; conditions: 5 μM ZA for 3 days, mean±SD of five experiments
Procedure: Rat pancreatic islets were isolated from Sprague Dawley rats (200˜230 g) by digesting the pancreatic duct with collagenase P (1 mg/ml in PBS). After digestion, the islets were separated with Histopaque-1077 (Sigma, St. Louis, Mo.). The primary islets were cultured in RPMI 1640 medium containing 10% fetal bovine serum (FBS), penicillin (100 IU/ml) and streptomycin (100 g/ml). Equal number of primary islet clusters was transferred into micro-centrifuge tube with 1 ml of 10% RPMI 1640, and incubated under normal (5.5 mM glucose) and glucotoxic conditions with or without Zoledronic acid (5 μM) for 3 days. Exposure to glucotoxic conditions was followed by treating with 0.6 mM free fatty acid (FFA; palmitate/oleate, 2:1) and 25 mM glucose in RPMI 1640 with 10% FBS. FFA were complexed with 5% fatty acid-free BSA in PBS. Cultured islets were washed in Krebs-Ringer-bicarbonate (KRB) buffer (130 mM NaCl, 3.6 mM KCl, 1.5 mM CaCl2, 0.5 mM MgSO4, 0.5 mM KH2PO4. 2.0 mM NaHCO2 and 10 mM HEPES) and incubated in KRB buffer for 1 hour followed by further incubation in KRB buffer containing 5.5 mM glucose for 1 hour. Samples were centrifuged at 12,000 g for 1 min and the supernatant was collected for measurement. […] Insulin concentrations from two supernatants removed at two different conditions were measured with a RIA kit (Linco) The results are presented as the mean±SD of five independent experiments. […]

SMILES: [Na+].[Na+].[Na+].[O]=[V]([O-])([O-])[O-] [Na3VO4, sodium orthovanadate]
- inhibition effect of binding PTP-1B with IR (PTP-1B; positive control, Na3VO4 1 mM, pH 10): 87±4%

SMILES: O=P(O)(O)C(O)(Cn1ccnc1)P(=O)(O)O [ZA, [1-hydroxy-2-(1H-imidazol-1-yl)ethane-1,1-diyl]bis(phosphonic acid)]
- inhibition at 5 µM (PTP-1B; ZA 5 μM, read-out: inhibition effect of binding PTP-1B with IR): 89 ± 21%
- insulin secretion level (Rat pancreatic islets; diabetes mellitus condition (25 mM glucose, glucotoxic), untreated reduced to 52±19% compared to normal condition): 72±34%
- insulin secretion level (Rat pancreatic islets; normal condition (5.5 mM glucose), untreated = 100±17%): 82±43%
